In brackets after ≈: the same amount, converted by molar mass. Like-named read-outs stand apart in the source and are kept apart here.
How the values were obtained:
[1] = test system: H. influenza Hi47 clinical strain, Ampicillin Resistant; assay: organism not typed; format: cell-based; details: read-out: MIC Hi47
[2] = test system: E. coli Ec113 efflux pump KO; assay: microbe, parasite or virus in culture; format: cell-based; details: Escherichia coli, read-out: MIC Ec113 efflux pump KO
[3] = test system: E. coli Ec50 efflux pump KO; assay: microbe, parasite or virus in culture; format: cell-based; details: Escherichia coli, read-out: MIC Ec50 efflux pump KO
[4] = test system: H. influenza Hi106 ATCC 51907; assay: organism not typed; format: cell-based; details: read-out: MIC Hi106
[5] = test system: H. influenza Hi3 ATCC 31517; assay: organism not typed; format: cell-based; details: read-out: MIC Hi3
[6] = test system: S. aureus Sa26 ATCC 25923; assay: Antibacterial activity assay (MIC), S. aureus Sa26; format: cell-based; details: Staphylococcus aureus
[7] = test system: S. aureus Sa2 clinical strain NCIMB 41953, MRSA; assay: microbe, parasite or virus in culture; format: cell-based; details: Staphylococcus aureus, read-out: MIC Sa2
DNA III Polymerase E = DNA III Polymerase E (Escherichia coli, UniProt P10443); assay: In vitro activity against DNA III Polymerase E, E. coli; format: biochemical; details: DNA polymerase III, E. coli; read-out: IC50 semiquantitative scoring, E. coli
Sequence of DNA III Polymerase E (P10443 whole entry): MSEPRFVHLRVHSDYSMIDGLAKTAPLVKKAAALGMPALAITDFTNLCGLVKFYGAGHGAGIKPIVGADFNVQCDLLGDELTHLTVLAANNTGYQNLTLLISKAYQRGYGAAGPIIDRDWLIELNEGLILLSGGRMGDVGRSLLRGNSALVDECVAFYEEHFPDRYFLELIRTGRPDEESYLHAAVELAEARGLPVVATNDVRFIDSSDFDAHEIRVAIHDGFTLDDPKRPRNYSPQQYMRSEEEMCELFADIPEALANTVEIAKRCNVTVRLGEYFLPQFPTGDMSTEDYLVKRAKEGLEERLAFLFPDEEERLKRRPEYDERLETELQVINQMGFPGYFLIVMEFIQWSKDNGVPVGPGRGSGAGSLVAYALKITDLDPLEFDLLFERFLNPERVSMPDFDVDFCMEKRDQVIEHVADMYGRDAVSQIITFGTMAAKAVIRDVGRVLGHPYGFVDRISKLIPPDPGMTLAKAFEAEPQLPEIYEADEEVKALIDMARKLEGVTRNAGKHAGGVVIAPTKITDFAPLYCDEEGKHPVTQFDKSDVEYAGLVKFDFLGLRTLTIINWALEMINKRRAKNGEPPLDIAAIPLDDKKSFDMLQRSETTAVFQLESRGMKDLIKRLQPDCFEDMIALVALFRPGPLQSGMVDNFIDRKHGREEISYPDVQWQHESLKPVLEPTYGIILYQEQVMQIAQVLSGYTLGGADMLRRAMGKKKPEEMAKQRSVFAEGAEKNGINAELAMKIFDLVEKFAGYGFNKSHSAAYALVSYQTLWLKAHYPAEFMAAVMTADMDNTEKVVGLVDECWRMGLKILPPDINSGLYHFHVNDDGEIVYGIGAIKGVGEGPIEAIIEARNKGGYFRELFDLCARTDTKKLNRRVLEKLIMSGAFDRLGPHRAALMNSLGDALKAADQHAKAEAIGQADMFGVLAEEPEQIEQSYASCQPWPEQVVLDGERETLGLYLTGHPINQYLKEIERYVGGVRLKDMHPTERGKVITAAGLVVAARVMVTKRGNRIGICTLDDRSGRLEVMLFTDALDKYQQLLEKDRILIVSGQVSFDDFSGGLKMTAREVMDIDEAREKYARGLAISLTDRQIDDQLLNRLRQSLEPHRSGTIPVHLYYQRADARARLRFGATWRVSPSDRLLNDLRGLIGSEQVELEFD
How it was run: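 Recombinant enzyme (0.47 μg/mL diluted stock) in 20 mM Tris pH7.5, 8 mM DTT, 10 mM MgOAc, 0.05% CHAPS met compound series from 100 μM top, 1/5 steps. Activated calf thymus DNA, dNTPs and [α-33P]-dTTP substrate were added, and incubation ran 120 min at 30° C. IC50 came from filter-captured incorporated radioactivity versus controls.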

[8] = test system: Methicillin Resistant S. aureus Sa2 (MRSA); format: in vivo; details: Groin Sa, Study 1, sample time 31 h post infection
[9] = target: DNA Polymerase IIIα (DnaE) from Staphylococcus aureus (Staphylococcus aureus, UniProt Q6GG04); assay: biochemical
Sequence of DNA Polymerase IIIα (DnaE) from Staphylococcus aureus (Q6GG04 1-1022): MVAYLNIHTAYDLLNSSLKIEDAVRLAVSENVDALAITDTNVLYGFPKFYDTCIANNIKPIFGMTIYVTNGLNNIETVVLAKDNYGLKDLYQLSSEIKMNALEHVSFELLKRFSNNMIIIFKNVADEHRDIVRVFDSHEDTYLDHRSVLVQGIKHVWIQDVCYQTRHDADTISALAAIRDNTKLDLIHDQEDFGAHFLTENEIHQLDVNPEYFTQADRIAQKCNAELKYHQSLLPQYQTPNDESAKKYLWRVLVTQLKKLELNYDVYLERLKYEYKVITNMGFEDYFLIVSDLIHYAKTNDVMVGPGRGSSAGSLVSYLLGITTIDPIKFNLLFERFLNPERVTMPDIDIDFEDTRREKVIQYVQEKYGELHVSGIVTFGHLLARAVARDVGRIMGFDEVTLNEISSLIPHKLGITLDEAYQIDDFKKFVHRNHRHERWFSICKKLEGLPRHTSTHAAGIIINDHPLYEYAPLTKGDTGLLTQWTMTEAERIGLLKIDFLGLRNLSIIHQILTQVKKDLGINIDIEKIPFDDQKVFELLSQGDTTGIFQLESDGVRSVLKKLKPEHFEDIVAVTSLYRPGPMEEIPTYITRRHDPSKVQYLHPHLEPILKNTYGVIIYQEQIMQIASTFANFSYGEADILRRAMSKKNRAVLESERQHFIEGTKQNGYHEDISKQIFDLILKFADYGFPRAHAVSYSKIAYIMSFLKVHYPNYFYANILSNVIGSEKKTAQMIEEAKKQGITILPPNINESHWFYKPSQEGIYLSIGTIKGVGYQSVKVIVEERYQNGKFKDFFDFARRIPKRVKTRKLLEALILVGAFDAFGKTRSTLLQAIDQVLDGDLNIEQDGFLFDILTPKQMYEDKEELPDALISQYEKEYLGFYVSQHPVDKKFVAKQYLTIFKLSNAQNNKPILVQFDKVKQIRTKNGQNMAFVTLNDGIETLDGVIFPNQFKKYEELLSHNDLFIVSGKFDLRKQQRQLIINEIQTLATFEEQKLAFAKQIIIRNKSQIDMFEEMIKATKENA

S. aureus Sa4 NCTC 6571 = assay: Antibacterial activity assay (MIC), S. aureus Sa4; format: cell-based; details: Staphylococcus aureus, NCTC6571, read-out: MIC Sa4
S. aureus Sa1 ATCC 13709 = assay: microbe, parasite or virus in culture; format: cell-based; details: Staphylococcus aureus, ATCC13709, read-out: MIC Sa1
E. coli Ec1 ATCC 25922 = assay: Antibacterial activity assay (MIC), E. coli Ec1; format: cell-based; details: Escherichia coli, ATCC25922, read-out: MIC Ec1
[10] = test system: Methicillin Resistant S. aureus Sa2 (MRSA); assay: animal or person; format: in vivo; details: sample 24 h post infection, lung; for Active: Study 4
[11] = test system: Methicillin Resistant S. aureus (MRSA); assay: Neutropenic mouse thigh infection model; details: Thigh Sa
[12] = test system: H. influenza Hi10 clinical strain; assay: organism not typed; format: cell-based; details: read-out: MIC Hi10
[13] = Study 3, 50 mg/kg SC BID, sample time 7 h PI
[14] = Study 5, 5 mg/kg IP BID, sample time 24 h PI
[15] = Study 5, 15 mg/kg IP BID, sample time 24 h PI
[16] = Study 5, 50 mg/kg IP BID, sample time 24 h PI
[17] = Study 5, 50 mg/kg SC BID, sample time 24 h PI
[18] = Study 5, 200 mg/kg PO BID, sample time 24 h PI
[19] = Study 6, 50 mg/kg PO BID, sample time 24 h PI
[20] = Study 6, 100 mg/kg PO BID, sample time 24 h PI

## CO[C@H]1C[C@H]2C=C[C@H]3[C@H]4O[C@]2(/C(C)=C/[C@@H](C)[C@@H]([C@@H](C)O)OC1=O)[C@@H]3[C@H](O)[C@@H](C)[C@H]4OC(=O)c1ccc[nH]1 [Nargenicin A1, reference compound]
[1]
  MIC: 64 µg/mL (≈ 124 µM)
[2]
  MIC: ≤ 0.06 µg/mL
[3]
  MIC: 2 µg/mL (≈ 3.88 µM)
[4]
  MIC: 32 µg/mL (≈ 62.1 µM)
[5]
  MIC: 64 µg/mL (≈ 124 µM)
[6]; ATCC25923, read-out: MIC Sa26
  MIC: 0.25 µg/mL (≈ 0.485 µM)
[6]; ATCC25923, read-out: MIC Sa26 + 10% SH
  MIC: 0.5 µg/mL
[6]; ATCC25923, read-out: MIC Sa26 + 50% SH
  MIC: 0.5 µg/mL
[7]
  MIC: 0.125 µg/mL (≈ 0.242 µM)
DNA III Polymerase E
  IC50: 1.94 to 1940 nM
[8]; 50 mg/kg IP BID
  Active: Y
  Log reduction vs. untreated: −3.13
[8]; 50 mg/kg PO BID
  Active: N
  Log reduction vs. untreated: −1.11
[9]
  IC50: 1.94 to 1940 nM
S. aureus Sa4 NCTC 6571
  MIC: ≤ 0.06 µg/mL
S. aureus Sa1 ATCC 13709
  MIC: 0.125 µg/mL (≈ 0.242 µM)
E. coli Ec1 ATCC 25922
  MIC: > 64 µg/mL
[10]; Staphylococcus aureus, MRSA, in Mus musculus, po, 24 h, read-out: Log reduction vs. untreated, Study 4, 12.5 mg/kg PO BID
  log reduction at 12.5 mg/kg: 0.39
[10]; Staphylococcus aureus, MRSA, in Mus musculus, po, 24 h, read-out: Log reduction vs. untreated, Study 4, 25 mg/kg PO BID
  log reduction at 25 mg/kg: 2.17
[10]; Staphylococcus aureus, MRSA, in Mus musculus, po, 24 h, read-out: Log reduction vs. untreated, Study 4, 50 mg/kg PO BID
  log reduction at 50 mg/kg: 2.57
[10]; 12.5 mg/kg PO BID
  Active: N
[10]; 25 mg/kg PO BID
  Active: Y
[10]; 50 mg/kg PO BID
  Active: Y
[11]; [13]
  Active: Y
  Log reduction vs. untreated: −4.52
[11]; [14]
  Active: N
  Log reduction vs. untreated: 0.28
[11]; [15]
  Active: N
  Log reduction vs. untreated: −0.55
[11]; [16]
  Active: Y
  Log reduction vs. untreated: −5.40
[11]; [17]
  Active: Y
  Log reduction vs. untreated: −3.28
[11]; [18]
  Active: Y
  Log reduction vs. untreated: −4.47
[11]; [19]
  Active: Y
  Log reduction vs. untreated: −2.02
[11]; [20]
  Active: Y
  Log reduction vs. untreated: −4.06
[12]
  MIC: 32 µg/mL (≈ 62.1 µM)
